The text below walks through data of US5336673A, “3-substituted cephem compounds” (priority 1990, dated 1994).

In one test the test system is enterobacteria. The settings on record: against the enterobacteria; cited from earlier work.
Test [1] concerns the target T1, β-lactamase from Enterobacter cloacae P99 (Enterobacter cloacae, UniProt P05364).
T1 construct: directly isolated from Enterobacter cloacae P99, E. coli TEM and Citrobacter freundii; endogenous in cells; host or cells: Enterobacter cloacae P99
Put plainly: Stability against β-lactamase, relative hydrolysis. The settings on record: Enterobacter cloacae P99 enzyme; 100 μM; relative(percentage), Cephaloridine taken as 100; OD at 260 nm. The class given is biochemical. The method, then:
(§1) The β-lactamases employed in the test were directly isolated from Enterobacter cloacae P99, E. coli TEM and Citrobacter freundii, and the antibiotics for comparison were Cephaloridine, Cephradine, Cefoperazone and Cefotaxime.
The relative hydrolysis of various compounds were calculated relative to the OD of Cephaloridine.

For test [2], the system named is Pseudomonas aeruginosa 1771. Put plainly: Antibacterial activity, MIC by Agar dilution method, standard test strain 14. The class given is cell-based. The note with it: 10^7 CFU/ml, 37° C., 18 hours. The procedure:
(§2) The antibacterial activity was determined by an Agar dilution method as described below.
(§3) That is, the two-fold serial dilutions of the antibacterial compounds (1000 μg compound/ml) were prepared and dispersed in Muller Hinton Agar in a petri dish to a concentration of 100~0.002 μg/ml. The culture broths of standard test strains were inoculated on the medium to a concentration 10^7 CFU/ml, and incubated at 37° C. for 18 hours. The concentration of compounds(I) at which the strains were not grown was regarded as minimum inhibition concentration (MIC).
(§4) The results of antibacterial activity test of the representative examples of the compound (I) against 20 standard test strains shown in terms of MIC were indicated in Table 1.
14. Pseudomonas aeruginosa 1771
A general note: In agar dilution, organisms are placed on agar that contains the substance at set levels.

For a further test, the system named is Enterobacter cloacae P99. Description: Antibacterial activity, MIC by Agar dilution method, standard test strain 19. It counts as cell-based. The settings on record: P99, 18 h. The method, then:
as §2, §3, §4
19. Enterobacter cloacae P99

The subject of another test is Escherichia coli DC 2. Put plainly: Antibacterial activity, MIC by Agar dilution method, standard test strain 9. It counts as cell-based. The note with it: Escherichia coli, DC2, 18 h. The method, then: as §2, §3, §4
Test [3] concerns Staphylococcus aureus 503. Description: Antibacterial activity, MIC by Agar dilution method, standard test strain 6. It counts as cell-based. The settings on record: 10^7 CFU/ml, 37° C., 18 hours. The procedure:
as §2, §3, §4
6. Staphylococcus aureus 503

In test [4] the test system is Streptococcus faecium MD 86. Put plainly: Antibacterial activity, MIC by Agar dilution method, standard test strain 3. The class given is cell-based. The note with it: Enterococcus faecium, MD86, 10^7 CFU/ml, 37° C., 18 hours. The method, then:
as §2, §3, §4
3. Streptococcus faecium MD 86

Test [5] deals with T2, β-lactamase from E. coli TEM (Escherichia coli, UniProt P62593).
T2 construct: directly isolated from Enterobacter cloacae P99, E. coli TEM and Citrobacter freundii; endogenous in cells; host or cells: E. coli TEM (plasmid-carried enzyme of the strain)
Put plainly: Stability against β-lactamase, relative hydrolysis. It counts as biochemical. The settings on record: E. coli TEM enzyme; 100 μM; relative(percentage), Cephaloridine taken as 100; OD at 260 nm. The method, then: (§5) In order to establish the usefulness in clinical applications of the compounds provided by the invention, the compound of Example 18 was tested for stability against the β-lactamase and for antibacterial activity on systemic infection model.
(§6) First, the stability against the β-lactamase was tested by determining the relative(percentage) hydrolysis of the compound of Example 18, relative to that of Cephaloridine, taking the absolute rate of Cephaloridine as 100.
as §1
(§7) Cephaloridine, other known antibiotics and the compound of Example 18 were reacted with each of the enzymes isolated from the strains and the OD were determined at 260 nm, λmax of Cephaloridine. The relative hydrolysis of various compounds were calculated relative to the OD of Cephaloridine.

In test [6] the target is T3, β-lactamase from Citrobacter freundii (Citrobacter freundii, UniProt P05193).
T3 construct: directly isolated from Enterobacter cloacae P99, E. coli TEM and Citrobacter freundii; endogenous in cells
Description: Stability against β-lactamase, relative hydrolysis. It counts as biochemical. The settings on record: Citrobacter freundii enzyme; 100 μM; relative(percentage), Cephaloridine taken as 100; OD at 260 nm. The method, then:
as §5, §6, §1, §7

The test system of test [7] is Enterobacter cloacae 1321E. Description: Antibacterial activity, MIC by Agar dilution method, standard test strain 20. The class given is cell-based. The settings on record: Enterobacter cloacae 1321E; 10^7 CFU/ml, 37° C., 18 hours; read-out: MIC. The method, then:
as §2, §3, §4
20. Enterobacter cloacae 1321E

In a further test the test system is Escherichia coli 1507E. Put plainly: Antibacterial activity, MIC by Agar dilution method, standard test strain 11. The class given is cell-based. The note with it: Escherichia coli 1507E; 10^7 CFU/ml, 37° C., 18 hours; read-out: MIC. The procedure:
as §2, §3, §4

The next test has as its system Escherichia coli O 55. Description: Antibacterial activity, MIC by Agar dilution method, standard test strain 7. The class given is cell-based. The note with it: O55; Escherichia coli O 55; 10^7 CFU/ml, 37° C., 18 hours; read-out: MIC. The method, then: as §2, §3, §4
The test system of test [8] is Streptococcus pyogenes A 77. Put plainly: Antibacterial activity, MIC by Agar dilution method, standard test strain 2. The class given is cell-based. The settings on record: A77, 10^7 CFU/ml, 37° C., 18 hours. The procedure: as §2, §3, §4
2. Streptococcus pyogenes A 77

A further test deals with Staphyloccus aureus 285. Put plainly: Antibacterial activity, MIC by Agar dilution method, standard test strain 5. It counts as cell-based. The settings on record: 10^7 CFU/ml, 37° C., 18 hours. The procedure: as §2, §3, §4
5. Staphyloccus aureus 285

For test [9], the system named is Pseudomonas aeruginosa 1592E. Put plainly: Antibacterial activity, MIC by Agar dilution method, standard test strain 13. It counts as cell-based. The settings on record: 10^7 CFU/ml, 37° C., 18 hours. The method, then: as §2, §3, §4
13. Pseudomonas aeruginosa 1592E

A further test deals with Escherichia coli TEM. Put plainly: Antibacterial activity, MIC by Agar dilution method, standard test strain 10. The class given is cell-based. The settings on record: Escherichia coli TEM; 10^7 CFU/ml, 37° C., 18 hours; read-out: MIC. The method, then: as §2, §3, §4
The test system of test [10] is Pseudomonas aeruginosa 1771M. Put plainly: Antibacterial activity, MIC by Agar dilution method, standard test strain 15. It counts as cell-based. The settings on record: 18 h. The procedure: as §2, §3, §4
15. Pseudomonas aeruginosa 1771M

In test [11] the test system is Pseudomonas aeruginosa 9027. Description: Antibacterial activity, MIC by Agar dilution method, standard test strain 12. The class given is cell-based. The note with it: 10^7 CFU/ml, 37° C., 18 hours. The method, then: as §2, §3, §4
12. Pseudomonas aeruginosa 9027

A further test has as its system Klebsiella oxytoca 1082E. Put plainly: Antibacterial activity, MIC by Agar dilution method, standard test strain 17. It counts as cell-based. The note with it: 10^7 CFU/ml, 37° C., 18 hours. The method, then:
as §2, §3, §4

Test [12] deals with Klebsiella aerogenes 1522E. Description: Antibacterial activity, MIC by Agar dilution method, standard test strain 18. It counts as cell-based. The note with it: Klebsiella aerogenes 1522E; 10^7 CFU/ml, 37° C., 18 hours; read-out: MIC. The method, then: as §2, §3, §4
18. Klebsiella aerogenes 1522E

The subject of a further test is Salmonella typhimurium. Description: Antibacterial activity, MIC by Agar dilution method, standard test strain 16. The note with it: Salmonella enterica, 10^7 CFU/ml, 37° C., 18 hours. It counts as cell-based. The procedure:
as §2, §3, §4
16. Salmonella typhimurium

Test [13] deals with Staphylococcus aureus SG 511. Put plainly: Antibacterial activity, MIC by Agar dilution method, standard test strain 4. The settings on record: SG511, 10^7 CFU/ml, 37° C., 18 hours. It counts as cell-based. The method, then:
as §2, §3, §4
4. Staphylococcus aureus SG 511

Test [14] has as its system Streptococcus pyogenes A 308. Put plainly: Antibacterial activity, MIC by Agar dilution method, standard test strain 1. The class given is cell-based. The settings on record: A308, 10^7 CFU/ml, 37° C., 18 hours. The method, then:
as §2, §3, §4
1. Streptococcus pyogenes A 308

The next test concerns Escherichia coli DC O. Description: Antibacterial activity, MIC by Agar dilution method, standard test strain 8. The class given is cell-based. The note with it: Escherichia coli DC O; 10^7 CFU/ml, 37° C., 18 hours; read-out: MIC. The method, then:
as §2, §3, §4

A further test relates to Pseudomonas. The note with it: against Pseudomonas, compared with other known cephalosporins; cited from earlier work.
The test system of a further test is Staphylococcus. The settings on record: against Staphylococcus; cited from earlier work.

Values after ≈ are worked out from the molar mass of the structure shown.

T3 sequence (P05193 21-381): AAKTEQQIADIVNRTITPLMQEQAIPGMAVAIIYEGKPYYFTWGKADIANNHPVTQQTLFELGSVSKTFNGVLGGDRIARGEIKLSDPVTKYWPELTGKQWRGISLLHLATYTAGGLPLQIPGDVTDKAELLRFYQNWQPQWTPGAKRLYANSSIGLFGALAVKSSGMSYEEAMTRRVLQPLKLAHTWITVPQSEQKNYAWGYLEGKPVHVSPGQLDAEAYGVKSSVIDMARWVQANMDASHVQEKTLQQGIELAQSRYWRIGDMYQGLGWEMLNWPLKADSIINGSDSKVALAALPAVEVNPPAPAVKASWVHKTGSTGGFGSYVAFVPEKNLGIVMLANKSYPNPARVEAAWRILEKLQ
T2 sequence (P62593 24-286 limits assumed): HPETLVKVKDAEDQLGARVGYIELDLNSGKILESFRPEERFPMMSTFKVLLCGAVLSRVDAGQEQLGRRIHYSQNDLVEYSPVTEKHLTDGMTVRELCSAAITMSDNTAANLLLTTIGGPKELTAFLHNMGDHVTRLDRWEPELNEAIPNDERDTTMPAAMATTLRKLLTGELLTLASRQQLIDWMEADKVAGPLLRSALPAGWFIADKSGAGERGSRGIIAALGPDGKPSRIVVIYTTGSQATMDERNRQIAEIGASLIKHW
T1 sequence (P05364 21-381): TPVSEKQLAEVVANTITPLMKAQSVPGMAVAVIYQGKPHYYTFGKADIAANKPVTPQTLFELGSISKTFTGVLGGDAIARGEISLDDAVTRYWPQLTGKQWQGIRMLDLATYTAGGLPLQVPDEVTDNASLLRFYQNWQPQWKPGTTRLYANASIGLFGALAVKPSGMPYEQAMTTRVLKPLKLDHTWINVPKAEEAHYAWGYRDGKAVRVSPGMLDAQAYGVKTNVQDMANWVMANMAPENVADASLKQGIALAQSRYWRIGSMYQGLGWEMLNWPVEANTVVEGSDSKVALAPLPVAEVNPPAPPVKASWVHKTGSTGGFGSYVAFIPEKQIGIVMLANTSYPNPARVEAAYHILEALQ

Regarding `CO/N=C(\C(=O)N[C@@H]1C(=O)N2C(C(=O)O)=C(CSc3nnnn3C)CS[C@H]12)c1csc(N)n1` [Cefmenoxime], the “antibacterial activity (in words)” value in the test on enterobacteria is reported as “strong antibacterial activities”.

What is called MIC is the lowest concentration that inhibits growth of the organism. Consider `CO/N=C(\C(=O)N[C@@H]1C(=O)N2C(C(=O)O)=C(COC(C)=O)CS[C@H]12)c1csc(N)n1` [Cefotaxime, reference compound], for which the “Relative hydrolysis by β-lactamase” value worked out at 0.0 in test [1], 0.6 in test [5] and 0.6 in test [6]. The MIC in test [2] was 6.25 µg/mL (≈ 13.7 µM); against Enterobacter cloacae P99 it was 100 µg/mL (≈ 220 µM); in the test on Escherichia coli DC 2 it was 0.013 µg/mL (≈ 0.0285 µM); in [3] it was 0.781 µg/mL (≈ 1.71 µM); in test [4], 100 µg/mL (≈ 220 µM); in test [7] it was 0.013 µg/mL (≈ 0.0285 µM). The minimal inhibitory concentration (MIC) came to 0.025 µg/mL (≈ 0.0549 µM) in the test with Escherichia coli 1507E; 0.007 µg/mL (≈ 0.0154 µM) in the test with Escherichia coli O 55; 0.004 µg/mL (≈ 0.00878 µM) in test [8]; 1.56 µg/mL (≈ 3.43 µM) against Staphyloccus aureus 285; 12.5 µg/mL (≈ 27.4 µM) in test [9]; 0.025 µg/mL (≈ 0.0549 µM) with Escherichia coli TEM. The minimal inhibitory concentration (MIC) was determined as 0.098 µg/mL (≈ 0.215 µM) in test [10]; 12.5 µg/mL (≈ 27.4 µM) in test [11]; 0.781 µg/mL (≈ 1.71 µM) with Klebsiella oxytoca 1082E; 0.013 µg/mL (≈ 0.0285 µM) in test [12]; 0.025 µg/mL (≈ 0.0549 µM) against Salmonella typhimurium; 1.56 µg/mL (≈ 3.43 µM) in [13]. Further, the minimum inhibitory concentration (MIC) in test [14] turned out to be 0.007 µg/mL (≈ 0.0154 µM); in the test on Escherichia coli DC O, 0.025 µg/mL (≈ 0.0549 µM). Further, the “antibacterial activity (in words)” value in the test on enterobacteria is “strong antibacterial activities”.

For the compound `CC(C)(O/N=C(\C(=O)N[C@@H]1C(=O)N2C(C(=O)[O-])=C(C[n+]3ccccc3)CS[C@H]12)c1csc(N)n1)C(=O)O` [Ceftazidime], the “antibacterial activity (in words)” value with Pseudomonas is on record as “relatively stronger”; in the test with enterobacteria, “strong antibacterial activities”; in the test with Staphylococcus it was “poor antibacterial activity”.

For `CO/N=C(\C(=O)N[C@@H]1C(=O)N2C(C(=O)O)=C(CSc3nc(=O)c(=O)[nH]n3C)CS[C@H]12)c1csc(N)n1` [Ceftriaxone], in the test with enterobacteria, the “antibacterial activity (in words)” value is “strong antibacterial activities”.

Take `CC1=C(C(=O)O)N2C(=O)[C@@H](NC(=O)[C@H](N)C3=CCC=CC3)[C@H]2SC1` [Cephradine]: the “Relative hydrolysis by β-lactamase” value in test [1] is 14.9; in test [5], 0.8; in test [6], 13.6.
